The source of these data is US20250018088A1, “COMPOSITIONS AND METHODS FOR REPAIRING DAMAGE TO SKELETAL MUSCLE” (MAYO FOUNDATION FOR MEDICAL EDUCATION AND RESEARCH, priority 2021, published 2025).

For orientation: inhibition means the change of the read-out against control, counted positive when it falls. Low readings indicate a response near the control, high ones a response far below the control.

The subject of experiment [1] is Human Skeletal Muscle Myoblasts (HSMM). Kind of experiment: Resveratrol inhibition of PEP-mediated HSMM proliferation. The class given is cell-based. Here is the method:
The mechanism of PEP-induced HSMM proliferation was interrogated using resveratrol (InvivoGen, San Diego, CA), an NF-κB inhibitor, in culture grown with 2.5×10^11 PEP exosomes/mL. The concentration of PEP exosomes was chosen both because of its optimal impact on the growth of cultured HSMMs and to match the empirically determined timed release PEP concentration from TISSEEL (Baxter International, Inc., Deerfield, IL) reconstituted with 1×10^12 PEP exosomes/mL. HSMM were plated on a 96-well plate at 10,000 cells/well overnight. Resveratrol was incubated at concentrations ranging from 50 μM to 500 μM for an hour before adding 2.5×10^11 PEP exosomes/mL to each well. Data is generated from live cell proliferation analysis (INCUCYTE, Essen BioScience, Inc., Ann Arbor, MI) by acquiring phase images (10× lens; five images/well in 96-well plate with three wells/condition). Western blotting for expression of NF-κB p65 at 72 hours post inhibition was quantified and normalized (IMAGE STUDIO software, LI-COR Biosciences, Inc., Lincoln, NE) using a total protein stain.

For another experiment, the system named is NF-κB p65. The experiment can be described thus: Western blot of NF-κB p65 expression in HSMM cells. It is filed as cell-based, human. Conditions: increasing resveratrol 50 μM to 500 μM with 2.5×10^11 exosomes/mL PEP, 72 hours. Here is the method: Western blotting for expression of exosome markers was conducted in two different manners: traditional and Li-Cor. In the traditional method, equal amounts of protein were loaded into each lane and transferred to a PVDF membrane. The membranes were blocked in 5% nonfat dried milk diluted in TBST and incubated with primary antibodies against CD63, CD9, and Flotillin (Table 1). HIRP-conjugated secondary antibodies were used to incubate the membranes and were developed with enhanced chemiluminescence (AERSHAM, GE Healthcare, Chicago, TL). Loading was standardized to a GAPDH loading control. In the Li-Cor digital fluorescence method (Li-Cor Biosciences, Inc., Lincoln, NE), equal amounts of protein were loaded into each lane and transferred to a nitrocellulose membrane. The membranes were blocked in Li-Cor TBS Blocking Buffer and incubated with primary antibodies against NF-κB p65, and PD-L1. Secondary antibodies at 680 nm and 800 nm were used to fluorescently image the membranes using an imaging system (Odyssey CLx, Li-Cor Biosciences, Inc., Lincoln, NE). Digital fluorescent intensity was determined by IMAGE STUDIO software (Li-Cor Biosciences, Inc., Lincoln, NE) and loading was standardized by total protein stain (Li-Cor Biosciences, Inc., Lincoln, NE) for whole lane protein digital fluorescence and analyzed by EMPIRIA STUDIO software (Li-Cor Biosciences, Inc., Lincoln, NE). […]

In experiment [1] (Homo sapiens, Myoblast, 250 μM resveratrol, 2.5×10^11 exosomes/mL PEP, p<0.0001 vs PEP), `Oc1ccc(C=Cc2cc(O)cc(O)c2)cc1` [resveratrol] registered an inhibition at 250 µM of about 50%. The inhibition at 500 µM in experiment [1] (Homo sapiens, Myoblast, 500 μM resveratrol, 2.5×10^11 exosomes/mL PEP, p<0.0001 vs PEP) was about 100%. Also, in experiment [1] (low doses of resveratrol (e.g., 50 μM), with PEP), the “inhibition of myoblast growth” value is “not significantly inhibited”. For the same compound, in the experiment with NF-κB p65, the “NF-κB expression in PEP-treated HSMM following resveratrol treatment” value is “dose dependent decrease”.
